Reference: a melting point compilation (Tetko et al.; mined from patent text by program, amines drawn as free bases though some values may be those of a salt)

CCOc1ccc(C2SC(=N)NC2=O)c(OCC)c1 (configuration not stated) gave a melting point of 179 to 181 °C.
With COc1c(N2CC(C)C(N)C(C)C2)c(F)cc2c(=O)c(C(=O)O)cn(C3CC3)c12 (configuration not stated) the melting point was 178 to 180 °C.
With COc1cc(OC)c(C23CC4CC(CC(C4)C2)C3)cc1C#Cc1ccc(C(=O)O)cc1 the melting point was 152 to 154 °C.
Work on COc1cc(NCCC(=O)O)c(C(C)=O)cc1OC yielded a melting point of 150 to 152 °C.
CCCCOc1ccc(/C=C/c2cc(OC)cc(OC)c2)cc1 showed a melting point of 54 to 56 °C.
Nc1nccc(-c2c[nH]c3nccc(-c4ccccc4)c23)n1 gave a melting point greater than 210 °C.
Work on CC(C)(c1ccc2ncccc2c1)n1nnc2ccc(-c3cn[nH]c3)nc21 yielded a melting point of 218 to 220 °C.
Compound CCOC(=O)c1cnc2c(NC(=O)c3c(Cl)cccc3Cl)cccc2c1CBr has a melting point of 199 °C.
Compound CSc1nc(C)cc(O)n1 has a melting point of 149 °C.
In the case of Cc1cncc(C)c1-c1c(C)cc(C(C#N)C#N)cc1C, the melting point is reported as 58 to 60 °C.
Work on O=C1Cc2ccccc2Sc2cc(C(F)(F)F)c(Cl)cc21 yielded a melting point of 123 to 124 °C.
With Cn1cccc1-c1ccc(C(F)(F)F)cc1 the melting point was 39 to 40 °C.
Compound CCOC(=O)c1cc(=O)c2ccc([N+](=O)[O-])c(C)c2o1 has a melting point of 120 °C.
O=C(c1ccc(-c2cccc3ccccc23)nc1)N1Cc2cccn2Cc2ccccc21 showed a melting point of 155 to 158 °C.
O=C1C2CCC(N1c1cccs1)n1c(=O)n(-c3ccccc3)c(=O)n12 (configuration not stated) gave a melting point of 238 to 244 °C.
Compound O=C(CCCO)Nc1cccc(-c2cccc3cc(Cc4cccc(C(F)(F)F)c4)oc23)c1 has a melting point of 134 to 135 °C.
With Fc1cccc(CCc2nnc(-c3ccc4c(c3)CCO4)o2)c1 the melting point was 85 to 86 °C.
Compound COCc1[nH]c(=O)c(C#N)c2c1CC(C)CC2 (configuration not stated) has a melting point of 205 to 208 °C.
COc1ccc2c(c1)C(C(=O)O)c1cccnc1CO2 (configuration not stated) gave a melting point of 140 to 141 °C.
For C[C@H]1CCCC(C)(C)[C@@H]1[C@H](O)c1ccc(F)cc1, the melting point was 55 to 57 °C.
Work on CC(C)(C)c1ccc2c(c1)[C@H]1Cc3ccccc3[C@@]1(C)N2 (relative stereo) yielded a melting point of 82 to 84 °C.
With CCOC(=O)C=Cc1ccc(CCc2nc(-c3ccccc3)c(C)s2)cc1 the melting point was 69 to 70 °C.
CC(=O)c1ccc(-c2ccc(CC(C)O)cc2)cc1 (single isomer, unassigned; (-)) showed a melting point of 139 to 140 °C.
In the case of COC(=O)c1ccc(CC(C)NCC(O)c2ccc(O)c(CO)c2)cc1C(=O)OC (configuration not stated), the melting point is reported as 124 to 129 °C.
Work on COc1cccc(C2OCCC(C)(C)C2(O)C(C)C)c1 (configuration not stated) yielded a melting point of 56 to 56.9 °C.
CCC(CC)Oc1cc([N+](=O)[O-])ccc1N showed a melting point of 62 to 63 °C.
Cc1ccc(C(=O)NC(NC(=S)Nc2cccc(C)c2)C(F)(F)F)cc1 (configuration not stated) showed a melting point of 197 to 198 °C.
Compound COC(=O)C1=C(C)NC(=O)N(C(=O)OC)C1c1cccc(N)c1 (configuration not stated) has a melting point of 190 to 193 °C.
N=C(N)Nc1nc(-c2ccccc2[N+](=O)[O-])c2cc(Cl)ccc2n1 gave a melting point of 150 °C.
O=C(Cn1c(-c2ccc(Cl)cc2)nc2cccnc21)N1CCN(c2cccc(C(F)(F)F)c2)CC1 showed a melting point of 185 to 186 °C.
Work on CCOc1ccc2[nH]c(=O)n(C3Cc4ccccc4C3)c2c1 yielded a melting point of 151 °C.
For Nc1ccc(Cl)cc1C(=O)C(F)(F)Cl, the melting point was 55 to 56 °C.
With CCc1ccc(-c2nc3ccccc3[nH]2)nc1 the melting point was 172 to 173 °C.
With CC(=O)c1c(-c2cccc([N+](=O)[O-])c2)cc(C(=O)NCCN2CCOCC2)nc1C the melting point was 107 to 110 °C.
For CC1CC2C(=C(Cl)C=CC2(F)n2[nH]c3c(c2=O)CCCC3)O1 (configuration not stated), the melting point was 240 to 242 °C.
In the case of Cc1nccn1CCC(=O)NC(C)c1ccc(Cl)cc1 (configuration not stated), the melting point is reported as 135 to 137 °C.
CC(=O)c1cccc2c1ccn2C gave a melting point of 63 to 64 °C.
CNc1cc2cnnn2c(C)n1 gave a melting point of 162 to 164 °C.
Compound Clc1cc(I)cnc1Cl has a melting point of 55 to 57 °C.
For CCOc1cc(C=C2CCN(C(N)=O)C2=O)ccc1O, the melting point was 204 to 205 °C.
COC(=O)CCc1cccc(Cl)c1C(=O)CCCNC(C)=O showed a melting point of 51 to 52 °C.
O=C(O)CCn1nc(-c2c(-c3ccccc3)nn3ccccc23)cc1O showed a melting point of 211 to 213 °C.
For C=CCC1Oc2ccccc2-c2c(OC)cc3c(c21)C(C)=CC(C)(C)N3 (configuration not stated), the melting point was 84 to 86 °C.
For CCOC(=O)C1(F)C(=O)NC(=O)NC1O/N=C\c1ccco1 (configuration not stated), the melting point was 152 to 153 °C.
For O=C1CC(c2ccccc2)C(=O)N1c1cc(Cc2n[nH]c(=O)c3ccccc23)ccc1F (configuration not stated), the melting point was 114 to 120 °C.
With O=C(Nc1ccc(Oc2ccc(CCC(=O)N3CCN(Cc4ccc5c(c4)OCO5)CC3)cc2)nc1)c1ccc(C(F)(F)F)cc1 the melting point was 140 to 141 °C.
N#Cc1cc(C(=O)NNC(=O)c2occc2-c2cccc(Oc3ccccc3)c2)ccc1O gave a melting point of 227 to 228 °C.
For CCOC(=O)CCc1[nH]c2cccc3c2c1CC1C3CC(NC(=O)N(CC)CC)CN1C (configuration not stated), the melting point was 160 to 161 °C.
Cc1c(C)c(N2Cc3cc(Cl)c(Cl)cc3C2)c(C)c2c1OC(C)(C)C2c1ccccc1 (configuration not stated) gave a melting point of 194 to 196 °C.
CCCCn1nc(C)c(CC(=O)O)c1C gave a melting point of 97 to 98 °C.
CCCCOc1c(CNC(=O)OC(C)(C)C)n(CC2CC2)c(=O)c2ccc(Br)cc12 showed a melting point of 118 to 119 °C.
O=C1NCC(c2ccsc2)SCC1N1C(=O)c2ccccc2C1=O (configuration not stated) showed a melting point of 243 to 245 °C.
Cc1cccc(NC(=O)NCC(=O)N(c2ccccc2)C(C(=O)OC(C)(C)C)c2ccc(Cl)cc2)c1 (racemic) gave a melting point of 167 °C.
Work on Cc1ccc(C(=O)c2noc(CC#N)n2)cc1 yielded a melting point of 76 to 78 °C.
CCOC(=O)c1c[nH]cc1-c1ccc(C)cc1 gave a melting point of 154 to 155 °C.
With CN(Cc1ccccc1)Cc1nc(-c2ccc(-c3ccccc3)cc2)c[nH]1 the melting point was 106 to 108 °C.
With CS(=O)(=O)c1ccc(-c2cc(CCCO[N+](=O)[O-])nn2C2CCCCC2)cc1 the melting point was 77 °C.
CNC(=O)C1Cc2c(n(C)c3ccc(OC)cc23)C1 (configuration not stated) showed a melting point of 164 to 165 °C.
Compound NCC(O)c1ccc([N+](=O)[O-])cc1 (configuration not stated) has a melting point of 138 to 139 °C.
Work on C=CCN1CCc2cc(OC[C@H]3CO[C@](Cn4ccnc4)(c4ccc(Cl)cc4Cl)O3)ccc2C1 (racemic) yielded a melting point of 94 to 95 °C.
In the case of COC(=O)c1cc(-c2c(OC)cccc2OC)n(-c2cc(C(=O)O)ccc2C)n1, the melting point is reported as 189 °C.
CCOC(=O)c1c(-c2ccc(C)cc2)nc2ccccn12 gave a melting point of 88 °C.
CC(C)n1cc(-c2c(-c3ccccc3F)nn3ccncc23)ccc1=O showed a melting point of 150 to 151 °C.
COc1ccc(NS(=O)(=O)c2ccc([N+](=O)[O-])cc2OC)cc1 gave a melting point of 180 to 182 °C.
Compound CC(Oc1ncn(-c2ccc(C(F)(F)F)cc2)n1)C(=O)O (configuration not stated) has a melting point of 215 to 218 °C.
Cc1cc(C)nc(NC(=O)NS(=O)(=O)c2ccsc2C(=O)O)n1 gave a melting point of 127 °C.
For Cn1nnc2sc([N+](=O)[O-])cc2c1=O, the melting point was 164 to 168 °C.
Work on O=C(O)c1ccc(COCc2csc3nc(C(=O)NCc4cccnc4)[nH]c(=O)c23)cc1 yielded a melting point of 309 to 311 °C.
COc1ccc2nc(COc3ccc(CC4SC(=O)N(C(c5ccccc5)(c5ccccc5)c5ccccc5)C4=O)cc3)n(C)c2n1 (configuration not stated) showed a melting point of 80 to 85 °C.
Work on COc1ccccc1CNc1ccc2cc(Nc3nnc(C(F)(F)F)o3)ccc2n1 yielded a melting point of 198 °C.
Cc1ccc(-c2ncc3c(n2)CCCC3)nc1-c1ccc(C#N)cc1 gave a melting point of 178 to 182 °C.
Cc1cc2nc(NC(=O)C(C)(C)C)nc(Cl)c2[nH]1 gave a melting point of 162 to 163 °C.
